# Experimental data published in patent US11566007B2, “Ras inhibitors” (Revolution Medicines, Inc., priority 2019, dated 2023).
# Where “and” joins values, the source holds several entries; their conditions need not be identical. Equal entries are not always repeated. Where two headings read alike, the source gives them in different places.
# Experiments:
# KRAS G12S = KRAS G12S (Homo sapiens (Human), UniProt P01116+P62937, G12S); assay: Ras-Raf (BRAF RBD) disruption / FRET / MOA assay, KRAS G12S; assay type: biochemical; settings: Ras-Raf disruption/FRET/MOA assay; class symbols; read-out: KRAS G12S FRET data IC50
# Sequence of KRAS G12S (P01116-2 other isoform, or with tags, fused parts or gaps G12S): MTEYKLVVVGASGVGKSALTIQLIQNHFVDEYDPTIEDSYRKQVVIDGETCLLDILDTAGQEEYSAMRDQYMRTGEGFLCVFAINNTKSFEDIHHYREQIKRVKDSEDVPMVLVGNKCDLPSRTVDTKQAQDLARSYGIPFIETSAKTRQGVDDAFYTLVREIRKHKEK
# Sequence of KRAS G12S (P62937 whole entry): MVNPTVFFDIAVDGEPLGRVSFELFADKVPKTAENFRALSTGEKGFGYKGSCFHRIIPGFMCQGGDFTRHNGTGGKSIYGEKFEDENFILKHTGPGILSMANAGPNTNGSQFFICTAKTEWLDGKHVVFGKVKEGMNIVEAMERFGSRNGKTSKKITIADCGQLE
# Outline: (§1)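 Compound-driven ternary complex of nucleotide-loaded Ras with cyclophilin A, disrupting BRAF RBD binding. 10-point 3-fold dilution from 30 μM final, 3 h at 25° C, then anti-His Eu-W1024 (10 nM) and anti-GST allophycocyanin (50 nM) for 1.5 h. IC50 from TR-FRET ratio decrease versus DMSO.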
# KRAS G12D = KRAS G12D (Homo sapiens (Human), UniProt P01116+P62937, G12D); assay: Ras-Raf (BRAF RBD) disruption / FRET / MOA assay, KRAS G12D; assay type: biochemical; settings: Ras-Raf disruption/FRET/MOA assay; class symbols; read-out: KRAS G12D FRET data IC50
# Sequence of KRAS G12D (P01116-2 other isoform, or with tags, fused parts or gaps G12D): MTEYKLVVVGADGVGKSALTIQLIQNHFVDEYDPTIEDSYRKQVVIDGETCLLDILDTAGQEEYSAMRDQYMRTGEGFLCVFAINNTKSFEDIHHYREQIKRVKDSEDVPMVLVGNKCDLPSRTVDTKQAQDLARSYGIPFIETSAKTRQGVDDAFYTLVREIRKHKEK
# Sequence of KRAS G12D (P62937 whole entry): as the sequence (P62937 whole entry) above
# Outline: as §1
# KRAS G12V = KRAS G12V (Homo sapiens (Human), UniProt P01116+P62937, G12V); assay: Ras-Raf (BRAF RBD) disruption / FRET / MOA assay, KRAS G12V; assay type: biochemical; settings: read-out: IC50* KRAS G12V FRET data
# Sequence of KRAS G12V (P01116-2 other isoform, or with tags, fused parts or gaps G12V): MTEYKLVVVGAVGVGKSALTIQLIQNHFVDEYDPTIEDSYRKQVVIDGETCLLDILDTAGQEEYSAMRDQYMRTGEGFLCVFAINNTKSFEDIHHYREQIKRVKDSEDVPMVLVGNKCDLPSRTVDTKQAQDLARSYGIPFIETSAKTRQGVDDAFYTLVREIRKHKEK
# Sequence of KRAS G12V (P62937 whole entry, canonical isoform): as the sequence (P62937 whole entry) above
# Experimental: (§2) The purpose of this biochemical assay is to measure the ability of test compounds to facilitate ternary complex formation between a nucleotide-loaded Ras isoform and cyclophilin A; the resulting ternary complex disrupts binding to a BRAF^RBD construct, inhibiting Ras signaling through a RAF effector.
# (§3) Compound is present in plate wells as a 10-point 3-fold dilution series starting at a final concentration of 30 μM. After incubation at 25° C. for 3 hours, a mixture of Anti-His Eu-W1024 and anti-GST allophycocyanin is then added to assay sample wells at final concentrations of 10 nM and 50 nM, respectively, and the reaction incubated for an additional 1.5 hours. […] Compounds that facilitate disruption of a Ras:RAF complex are identified as those eliciting a decrease in the TR-FRET ratio relative to DMSO control wells.
# (§4) This protocol may also be executed substituting other Ras proteins or nucleotides.
# (§5) The purpose of this biochemical assay was to measure the ability of test compounds to facilitate ternary complex formation between a nucleotide-loaded K-Ras isoform and Cyclophilin A; the resulting ternary complex disrupts binding to a BRAF^RBD construct, inhibiting K-Ras signaling through a RAF effector. Data is reported as IC50 values.
# as §3, with “Compound was” for “Compound is”, “allophycocyanin was” for “allophycocyanin is”, “a K-Ras:RAF” for “a Ras:RAF”, “complex were” for “complex are”
# [1] = test system: NCI-H358 cells (K-Ras G12C); assay: Potency assay: pERK in NCI-H358 cells; assay type: cell-based, human; settings: H358 KRAS G12C, read-out: pERK EC50
# Outline: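 Compounds are dosed as ten 3-fold dilutions from a 10 mM DMSO stock, in duplicate, and left on cells for 4 h at 37 °C, 5% CO2. Phospho-ERK1/2 is then quantified by AlphaLISA SureFire Ultra or In-Cell Western, and IC50 is derived from a 4-parameter sigmoid against log concentration.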
# K-Ras G13C = K-Ras G13C (Homo sapiens (Human), UniProt P01116+P62937, G13C); assay: Ras-Raf (BRAF RBD) disruption / FRET / MOA assay, KRAS G13C; assay type: biochemical; settings: KRAS G13C; Ras-Raf disruption/FRET/MOA assay; read-out: IC50* KRAS G13C FRET data
# Sequence of K-Ras G13C (P01116-2 other isoform, or with tags, fused parts or gaps G13C): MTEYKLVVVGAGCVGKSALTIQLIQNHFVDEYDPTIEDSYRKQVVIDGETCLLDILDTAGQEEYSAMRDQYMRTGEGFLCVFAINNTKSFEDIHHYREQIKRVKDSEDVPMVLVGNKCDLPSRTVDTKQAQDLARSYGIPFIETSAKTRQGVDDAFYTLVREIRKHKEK
# Sequence of K-Ras G13C (P62937 whole entry): as the sequence (P62937 whole entry) above
# Experimental: as §2, §3, §4, §5
# as §3, with “Compound was” for “Compound is”, “allophycocyanin was” for “allophycocyanin is”, “a K-Ras:RAF” for “a Ras:RAF”, “complex were” for “complex are”
# KRAS WT = KRAS WT (Homo sapiens (Human), UniProt P01116+P62937); assay: Ras-Raf (BRAF RBD) disruption / FRET / MOA assay, KRAS WT; assay type: biochemical; settings: read-out: IC50* KRAS WT FRET data
# Sequence of KRAS WT (P01116-2 other isoform, or with tags, fused parts or gaps): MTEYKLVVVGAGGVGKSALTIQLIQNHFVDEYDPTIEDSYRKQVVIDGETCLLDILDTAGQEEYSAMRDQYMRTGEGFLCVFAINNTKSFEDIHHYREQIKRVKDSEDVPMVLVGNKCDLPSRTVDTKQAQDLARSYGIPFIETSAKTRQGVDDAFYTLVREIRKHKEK
# Sequence of KRAS WT (P62937 whole entry): as the sequence (P62937 whole entry) above
# Experimental: as §2, §3, §4, §5
# as §3, with “Compound was” for “Compound is”, “allophycocyanin was” for “allophycocyanin is”, “a K-Ras:RAF” for “a Ras:RAF”, “complex were” for “complex are”
# NCI-H358 (K-Ras G12C) = assay: CellTiter-Glo cell viability assay, NCI-H358; assay type: cell-based, human; settings: NCI-H358, 5-day treatment, class symbols, read-out: Additional H358 Cell Viability assay data (K-Ras G12C, IC50)
# Outline: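 Luminescent viability readout on day 5 after direct compound addition to plated cells; plates sat ~30 min at room temperature before reading. Values expressed as percent of mean DMSO signal, curves fit with a four-parameter logistic model.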
# K-Ras G12C = K-Ras G12C (Homo sapiens (Human), UniProt P01116+P62937, G12C); assay: Ras-Raf (BRAF RBD) disruption / FRET / MOA assay, KRAS G12C; assay type: biochemical; settings: KRAS G12C; Ras-Raf disruption/FRET/MOA assay; read-out: IC50* KRAS G12C FRET data
# Sequence of K-Ras G12C (P01116-2 other isoform, or with tags, fused parts or gaps G12C): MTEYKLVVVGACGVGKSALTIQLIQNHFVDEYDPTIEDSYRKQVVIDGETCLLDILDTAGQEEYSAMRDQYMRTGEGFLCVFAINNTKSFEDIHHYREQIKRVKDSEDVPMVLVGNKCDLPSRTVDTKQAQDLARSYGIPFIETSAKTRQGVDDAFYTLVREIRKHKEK
# Sequence of K-Ras G12C (P62937 whole entry): as the sequence (P62937 whole entry) above
# Experimental: as §2, §3, §4, §5
# as §3, with “Compound was” for “Compound is”, “allophycocyanin was” for “allophycocyanin is”, “a K-Ras:RAF” for “a Ras:RAF”, “complex were” for “complex are”
Structure (SMILES),IC50 (KRAS G12S),IC50 (KRAS G12D) [µM],IC50 (KRAS G12V),"EC50 ([1]; Homo sapiens, NCI-H358) [µM]",IC50 (K-Ras G13C),IC50 (KRAS WT),IC50 (K-Ras G12C),"IC50 (NCI-H358 (K-Ras G12C); Homo sapiens, NCI-H358, 120 h) [µM]",EC50 [1] [µM],IC50 (NCI-H358 (K-Ras G12C)) [µM]
C=CC(=O)N1CC[C@H](C(=O)N(C)[C@H](C(=O)N[C@H]2Cc3cc(O)cc(c3)-c3ccc4c(c3)c(c(-c3ccccc3CCN3CCCC3)n4CC)CC(C)(C)COC(=O)[C@@H]3CCCN(N3)C2=O)C(C)C)C1 [Example A100],> 10 µM,> 10,> 10 µM,< 5,> 10 µM,> 10 µM,1 to 10 µM,0.1 to 1,,
C=CC(=O)N1CCC2(CC1)CCN([C@H](C(=O)N[C@H]1Cc3cc(O)cc(c3)-c3ccc4c(c3)c(c(-c3ccccc3CCOC)n4CC)CC(C)(C)COC(=O)[C@@H]3CCCN(N3)C1=O)C(C)C)C2=O [Example A222],> 10 µM,> 10,> 10 µM,< 5,0.1 to 1 µM and > 10 µM,1 to 10 µM and > 10 µM,0.1 to 1 µM and 1 to 10 µM,,,
CCn1c(-c2cccnc2[C@H](C)OC)c2c3cc(ccc31)-c1cc(O)cc(c1)C[C@H](NC(=O)[C@H](C(C)C)N(C)C(=O)c1nc(NC(=O)/C=C/CN(C)C)cs1)C(=O)N1CCC[C@H](N1)C(=O)OCC(C)(C)C2 [Example A258],1 to 10 µM,,,,,,,,< 5,0.1 to 1
C=CC(=O)N1CC[C@H](C(=O)N(C)[C@H](C(=O)NC2C[C@H]3CN(CCCO3)c3ccc4c(c3)c(c(-c3cccnc3[C@H](C)OC)n4CC)CC(C)(C)COC(=O)[C@@H]3CCCN(N3)C2=O)C(C)C)C1 (some centres unmarked) [Example A429],> 10 µM,> 10,,,,,> 10 µM,,,> 1

# Now from value to compound, other results behind:
IC50 (KRAS G12S),IC50 (KRAS G12D) [µM],IC50 (KRAS G12V),"EC50 ([1]; Homo sapiens, NCI-H358) [µM]",IC50 (K-Ras G13C),IC50 (KRAS WT),IC50 (K-Ras G12C),Structure (SMILES),"IC50 (NCI-H358 (K-Ras G12C); Homo sapiens, NCI-H358, 120 h) [µM]",EC50 [1] [µM],IC50 (NCI-H358 (K-Ras G12C)) [µM]
1 to 10 µM and > 10 µM,> 10,1 to 10 µM and > 10 µM,< 5,> 10 µM,> 10 µM,0.1 to 1 µM and > 10 µM,C=CC(=O)N1CC[C@H](C(=O)N(C)[C@H](C(=O)N[C@H]2Cc3cc(O)cc(c3)-c3ccc4c(c3)c(c(-c3ccccc3CCOC)n4CC)C[C@H](C)COC(=O)[C@@H]3CCCN(N3)C2=O)C(C)C)C1 [Example A215],,,
1 to 10 µM and > 10 µM,> 10,1 to 10 µM and > 10 µM,< 5,1 to 10 µM and > 10 µM,1 to 10 µM and > 10 µM,0.1 to 1 µM and > 10 µM,C=CC(=O)N1CC[C@]2(CCCN([C@H](C(=O)N[C@H]3Cc4cc(O)cc(c4)-c4ccc5c(c4)c(c(-c4ccccc4CCOC)n5CC)CC(C)(C)COC(=O)[C@@H]4CCCN(N4)C3=O)C(C)C)C2=O)C1 [Example A217],,,
1 to 10 µM and > 10 µM,> 10,1 to 10 µM and > 10 µM,< 5,> 10 µM and 1 to 10 µM,> 10 µM,0.1 to 1 µM and > 10 µM,CC#CC(=O)N1CC[C@H](C(=O)N(C)[C@H](C(=O)N[C@H]2Cc3cc(O)cc(c3)-c3ccc4c(c3)c(c(-c3ccccc3CCOC)n4CC)CC(C)(C)COC(=O)[C@@H]3CCCN(N3)C2=O)C(C)C)C1 [Example A221],,,
1 to 10 µM and > 10 µM,> 10,1 to 10 µM and > 10 µM,,> 10 µM,> 10 µM,0.1 to 1 µM and > 10 µM,C=CC(=O)N1CC[C@H](C(=O)N(C)[C@H](C(=O)N[C@H]2Cc3cc(O)cc(c3)-c3ccc4c(c3)c(c(-c3ccc(OCC(=O)O)cc3)n4CC)CC(C)(C)COC(=O)[C@@H]3CCCN(N3)C2=O)C(C)C)C1 [Example A223],> 1,,
> 10 µM,> 10,,,,,1 to 10 µM,C=CC(=O)N1CC[C@H](C(=O)N(C)[C@H](C(=O)N[C@H]2Cc3cc(N)cc(c3)-c3ccc4c(c3)c(c(-c3ccccc3CCOC)n4CC)CC(C)(C)COC(=O)[C@@H]3CCCN(N3)C2=O)C(C)C)C1 [Examples A002],,,
